Laboratory results reported in ChEMBL document CHEMBL1129904, “3-chloro-4-carboxamido-6-arylpyridazines as a non-peptide class of interleukin-1 converting enzyme inhibitor” (Bioorg Med Chem Lett, 1997).

What was measured:
Caspase-1 (Homo sapiens) = molecular target: T1, Caspase-1 (Homo sapiens) (UniProt P29466); test: Inactivation of IL-1 beta converting enzyme
T1 sequence (whole entry): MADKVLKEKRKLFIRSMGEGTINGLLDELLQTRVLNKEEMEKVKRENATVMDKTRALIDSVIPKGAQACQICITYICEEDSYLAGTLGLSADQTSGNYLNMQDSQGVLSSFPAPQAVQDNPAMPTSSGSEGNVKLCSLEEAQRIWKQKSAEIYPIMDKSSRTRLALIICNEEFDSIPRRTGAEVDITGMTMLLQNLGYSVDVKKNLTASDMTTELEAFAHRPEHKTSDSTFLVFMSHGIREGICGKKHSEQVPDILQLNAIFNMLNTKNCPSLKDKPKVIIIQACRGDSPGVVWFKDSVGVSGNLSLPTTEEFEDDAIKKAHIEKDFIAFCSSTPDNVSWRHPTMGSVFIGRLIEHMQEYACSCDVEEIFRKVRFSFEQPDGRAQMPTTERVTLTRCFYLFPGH

Caspase-1 = molecular target: T2, Caspase-1 (Homo sapiens, UniProt P29466); test: Antiinflammatory activity measured as the concentration required to inhibit IL-1 beta converting enzyme
T2 sequence (P29466 whole entry): T1 sequence (whole entry)

| SMILES | k obs / 1 (Caspase-1 (Homo sapiens)) [M⁻¹ s⁻¹] | IC50 (Caspase-1) [µM] |
| --- | --- | --- |
| COc1nnc(-c2ccncc2)cc1C(N)=O | – | > 250 |
| N#Cc1cc(-c2ccncc2)nnc1Cl | – | 110 |
| CNC(=O)c1cc(Cl)nnc1Cl | – | > 250 |
| N#Cc1ccc(-c2cc(C(N)=O)c(Cl)nn2)cc1Cl | 225 | 0.5 |
| CN(C)C(=O)c1cc(-c2ccncc2)nnc1Cl | – | > 250 |
| NC(=O)c1cc(-c2ccncc2)cnc1Cl | – | > 250 |
| COc1ccc(-c2cc(C(N)=O)c(Cl)nn2)cc1 | < 5 | 66 |
| NC(=O)c1cc(-c2ccccc2)nnc1Cl | < 5 | 57 |
| NC(=O)c1cnnc(-c2ccncc2)c1 | – | > 250 |
| Cc1c(-c2ccc(Cl)cc2)nnc(Cl)c1C(N)=O | – | > 250 |
| CSc1nnc(-c2ccncc2)cc1C(N)=O | – | > 250 |

The remaining compounds from weak to strong by IC50 (Caspase-1), led by results:

| k obs / 1 (Caspase-1 (Homo sapiens)) [M⁻¹ s⁻¹] | IC50 (Caspase-1) [µM] | SMILES |
| --- | --- | --- |
| – | 18 | NC(=O)c1cc(-c2ccc(NS(=O)(=O)c3ccccc3)cc2)nnc1Cl |
| 10 | 13 | CCOC(=O)c1cc(-c2ccncc2)nnc1Cl |
| 25 | 10 | CNC(=O)c1cc(-c2ccncc2)nnc1Cl |
| 45 | 5.5 | NC(=O)c1cc(-c2ccc(F)c(Cl)c2)nnc1Cl |
| – | 5 | NC(=O)c1cc(-c2ccc(Cl)cc2)nnc1Cl |
| – | 5 | NC(=O)c1cc(-c2ccc(Br)cc2)nnc1Cl |
| 40 | 5 | NC(=O)c1cc(-c2ccc(C(F)(F)F)cc2)nnc1Cl |
| 50 | 4 | O=C(NCc1ccccc1)c1cc(-c2ccncc2)nnc1Cl |
| 70 | 3 | NC(=O)c1cc(-c2ccncc2)nnc1Cl |
| 140 | 2 | O=C(NCc1ccc(Cl)cc1Cl)c1cc(-c2ccncc2)nnc1Cl |
| – | 2 | CCOC(=O)CNC(=O)c1cc(-c2ccncc2)nnc1Cl |
| – | 1.5 | N#Cc1ccc(-c2cc(C(N)=O)c(Cl)nn2)cc1 |
| – | 0.7 | NC(=O)c1cc(-c2ccc([N+](=O)[O-])cc2)nnc1Cl |
| 355 | 0.3 | CS(=O)(=O)c1c(F)cc(-c2cc(C(N)=O)c(Cl)nn2)cc1F |
